Experiments:
Type in all cases: functional, cell-based
EBC-1 = assay: Antiproliferative activity against human EBC-1 cells incubated for 48 hrs by MTT assay; settings: EBC-1, 48 h
HCT-116 = assay: Antiproliferative activity against human HCT-116 cells incubated for 48 hrs by MTT assay; settings: HCT-116, 48 h
NCI-H1581 = assay: Antiproliferative activity against human NCI-H1581 cells incubated for 48 hrs by MTT assay; settings: NCI-H1581, 48 h

SMILES | IC50 (HCT-116) [µM] | IC50 (NCI-H1581) [µM] | IC50 (EBC-1) [µM]
O=C(NC1CS[Se]C1)/C(Cc1ccc(O)cc1)=N/O (stereo not given) | 3.3 | 0.84 | 3.47
O=C(NCCSSCCNC(=O)/C(Cc1ccco1)=N/O)/C(Cc1ccco1)=N/O | > 10 | > 10 | > 10
O=C(NC1CC[Se][Se]C1)/C(Cc1cccc(F)c1)=N/O (stereo not given) | > 10 | > 10 | > 10
O=C(NC1CC[Se][Se]C1)/C(Cc1ccc(O)c(Br)c1)=N/O (stereo not given) | > 10 | > 10 | > 10
O=C(NC1C[Se][Se]C1)/C(Cc1ccc(O)cc1)=N/O | > 10 | > 10 | > 10
O=C(NC1CC[Se]SC1)/C(Cc1ccc(Br)s1)=N/O (stereo not given) | > 10 | 1.44 | > 10
O=C(NC1CC[Se]SC1)/C(Cc1ccc(Cl)s1)=N/O (stereo not given) | > 10 | 1.1 | > 10
O=C(NC1CSSC1)/C(Cc1cccc(F)c1)=N/O | > 10 | > 10 | > 10
CC(C)(CNC(=O)/C(Cc1ccc(O)c(Br)c1)=N/O)SSC(C)(C)CNC(=O)/C(Cc1ccc(O)c(Br)c1)=N/O | 5.53 | > 10 | > 10
O=C(NC1CCS[Se]C1)/C(Cc1ccc(O)cc1)=N/O (stereo not given) | > 10 | 2.24 | > 10
O=C(NCCSSCCNC(=O)/C(Cc1ccc(Cl)s1)=N/O)/C(Cc1ccc(Cl)s1)=N/O | 5.48 | 4.02 | > 10
O=C(NC1CCS[Se]C1)/C(Cc1ccc(Br)s1)=N/O (stereo not given) | > 10 | 3.6 | > 10
O=C(NC1CC[Se][Se]C1)/C(Cc1ccc(O)cc1)=N/O (stereo not given) | > 10 | > 10 | > 10
O=C(NCCSSCCNC(=O)/C(Cc1ccc[nH]1)=N/O)/C(Cc1ccc[nH]1)=N/O | > 10 | > 10 | > 10
O=C(NC1C[Se][Se]C1)/C(Cc1ccc(O)c(Br)c1)=N/O | > 10 | > 10 | > 10
O=C(NC1CCS[Se]C1)/C(Cc1ccc(Cl)s1)=N/O (stereo not given) | > 10 | 2.46 | > 10
O=C(NC1CS[Se]C1)/C(Cc1ccc(O)c(Br)c1)=N/O (stereo not given) | 1.53 | 0.93 | 3.31

More lines, main results first:

IC50 (HCT-116) [µM] | IC50 (NCI-H1581) [µM] | SMILES | IC50 (EBC-1) [µM]
8.97 | > 10 | O=C(NCCSSCCNC(=O)/C(Cc1ccsc1)=N/O)/C(Cc1ccsc1)=N/O | > 10
1.74 | > 10 | O=C(NCCSSCCNC(=O)/C(Cc1ccc(Br)o1)=N/O)/C(Cc1ccc(Br)o1)=N/O | > 10
6.02 | > 10 | O=C(NC1CSSC1)/C(Cc1ccc(O)c(Br)c1)=N/O | > 10
> 10 | > 10 | O=C(NC1CCSSC1)/C(Cc1ccc(O)c(Br)c1)=N/O (stereo not given) | > 10
> 10 | > 10 | N#Cc1ccc(COc2ccc(C/C(=N\O)C(=O)NC3CSSC3)cc2)cc1 | > 10
0.41 | 0.3 | O=C(NCC[Se][Se]CCNC(=O)/C(Cc1ccco1)=N/O)/C(Cc1ccco1)=N/O | 0.45
0.19 | 0.16 | O=C(NCC[Se][Se]CCNC(=O)/C(Cc1cccs1)=N/O)/C(Cc1cccs1)=N/O | 1.13
> 10 | > 10 | O=C(NC1CCSSC1)/C(Cc1cccc(F)c1)=N/O (stereo not given) | > 10
2.22 | 4.17 | O=C(NCCSSCCNC(=O)/C(Cc1ccc(Br)s1)=N/O)/C(Cc1ccc(Br)s1)=N/O | > 10
6.9 | > 10 | Cc1ccc(C/C(=N\O)C(=O)NCCSSCCNC(=O)/C(Cc2ccc(C)o2)=N/O)o1 | > 10
6.57 | – | O=C(NCCSSCCNC(=O)/C(Cc1ccc(O)cc1)=N/O)/C(Cc1ccc(O)cc1)=N/O | –
9.67 | > 10 | O=C(NC1CSSC1)/C(Cc1ccc(O)cc1)=N/O | > 10

From ChEMBL document CHEMBL5584238, “Psammaplin A analogues with modified disulfide bond targeting histone deacetylases: Synthesis and biological evaluation” (Eur J Med Chem, 2024)
